The nature of data set [1]: Mouse pharmacokinetics. In kind it is in vivo. The note with it: for AUC(0-t) / Cmax: female, NMRI, whole blood, mouse; for AUC(0-t): 10 mg/kg po, read-out: AUC0–8 (converted); for Cmax: oral dose 50mg/kg. How it is done: Test compound was dosed as a bolus solution intravenously at 3 mg free base/kg (dose volume, 5 mL/kg; dose vehicle, saline or 5% DMSO; 40% PEG400; 55% saline) to female NMRI mice (n = 3) or dosed orally by gavage as a solution at 10 and/or 50 mg free base/kg (dose volume, 5 mL/kg; dose vehicle, 5% DMSO; 95% distilled water or 5% DMSO; 40% PEG400; 55% distilled water) to female NMRI mice (n = 3/dose level). Female NMRI mice were chosen as these represent the sex and strain used for the stage 1 and stage 2 HAT efficacy models. Blood samples were taken from each mouse at 2 (IV only), 5 (IV only), 15, and 30 min, 1, 2, 4, 6, 8, and 24 (po only) hours postdose and mixed with two volumes of distilled water. After suitable sample preparation, the concentration of test compound in blood was determined by UPLC-MS/MS using a Quattro Premier XE (Waters, USA). Pharmacokinetic parameters were derived from the mean blood concentration time curve using PKsolutions software v 2.0 (Summit Research Services, USA).

Data set [2] relates to P-glycoprotein. Put plainly: Rat brain penetration study +/- GF120918. Conditions: in vivo.
Data set [3] in a line: Intrinsic clearance (Cli), mouse liver microsomes. The format is in vitro ADME. The note with it: for Cli: mouse microsomes. (Liver microsomes are a subcellular fraction often used to study metabolism.)
Data set [4] deals with T. b. rhodesiense STIB900. The data set can be described thus: Stage 1 HAT mouse efficacy model, T. b. rhodesiense STIB900. In kind it is in vivo. The note with it: b.i.d. po for 4 days.
Data set [5] relates to T. b. brucei S427. Put plainly: Stage 1 HAT mouse efficacy model, T. b. brucei S427. The format is in vivo. Conditions: for stage 1 HAT minimal curative dose, T. b. brucei S427: b.i.d. po, mouse; for Activity in stage 1 mouse model: T. b. brucei S427, 50 mg/kg b.i.d. po for 4 days.
Data set [6] in a line: Maximum tolerated dose in mice. Conditions: mouse, in vivo.
The nature of data set [7]: Rat hepatic portal vein study. The format is in vivo. The note with it: male Sprague–Dawley rat, 3 mg/kg orally. The protocol: aIC50 values are shown as mean values of two or more determinations. bCompounds with Hill slopes […]
Rat hepatic portal vein study protocol.
10mL/kg; Dose vehicle: 5% DMSO; 40% PEG400; 55% distilled water) to male Sprague-Dawley rats (n=7). A single rat was placed under terminal anaesthesia with isofluorane at 15 and 30 minutes, 1, 2, 4, 6 and 8 hours post-dose and a blood sample taken from the hepatic portal vein and the heart, each mixed with two volumes of distilled water. After suitable sample preparation, the concentration of compound 33 in all blood samples was determined by UPLC/MS/MS using a Quattro Premier XE (Waters, USA). The hepatic portal vein and cardiac blood concentration time profile is presented in Figure S2. Pharmacokinetic parameters were derived from the blood concentration time profiles using PKsolutions software v 2.0 (Summit Research Services, USA).

Data set [8] can be described thus: In vitro metabolite identification with mouse microsomes. The format is in vitro ADME. Conditions: for % Parent remaining (t = 15 min): 5µM, 15 min at 37°C, mouse liver microsomes; for sulfonamide N-dealkylation on incubation with mouse microsomes: words.
The test system of data set [9] is T. b. brucei, BSF427, VSG118. The data set can be described thus: Cell viability assay, trypanosome. In kind it is cell-based. The note with it: for ~EC99: T. brucei.
Data set [10] is described as follows: Dose calculations for in vivo efficacy studies (brain concentration, brain free fraction). The note with it: for oral dose needed to deliver stage 2 cures (Dose required): b.i.d., calculated to keep brain free concentration above T. brucei EC99. The protocol: isofluorane. A blood sample was taken by cardiac puncture into two volumes of distilled water and the brain removed. After suitable sample preparation, the concentration of 1 in blood and brain was determined by UPLC/MS/MS using a Quattro Premier XE (Waters, USA). For each rat, the concentration in brain (ng/g) was divided by the concentration in blood (ng/mL) to give a brain:blood (B:B) ratio. The mean value obtained was quoted. A higher B:B ratio in animals pre-treated with GF120918 is indicative of a Pgp substrate.
Dose calculations for in vivo efficacy studies.
Property Compound 40 Compound 46 Compound 42
Oral Dose 50mg/kg 50mg/kg 50mg/kg

Data set [11] concerns T. b. brucei GVR35. In kind it is in vivo. Conditions: for toxicity in infected mice in stage 2 model: dosed at the MTD b.i.d. po for 5 days, mice affected. From the text: NMRI mice used in the experiment were purchased from Harlan, UK. Mice were maintained under standard temperature/lighting conditions and given food and water ad libitum. The trypanosomes used in this study were of the cloned stabilate T. b. brucei GVR35, originally derived from trypanosomes isolated from a wildebeest in the Serengeti in 1966.[31] By 13 days postinfection, parasites entered the CNS.[32] If treatment is delayed until 21 days after infection, successful cure is therefore dependent on the ability of the compound to penetrate through the blood–brain barrier.[33] This model is widely used to evaluate the efficacy of new compounds for treatment against stage 2 HAT.[34]
Cryopreserved T. b. brucei GVR35 trypomastigotes were diluted to ∼5 × 10^4 cells/mL in 20 mM Hanks Balanced Salt Solution with glucose, and 0.2 mL of that dilution was used for infection (∼1 × 10^4 cells/mL per animal). All animals in the groups were intraperitoneally infected (ip) on day 0. After infection, parasitaemia was monitored by examination of tail blood smears. On day 21, post infection animals were randomly allocated to five mice per group. Infected animals were dosed with one of the following: diaminazene diaceturate (ip), 40 mg/kg once only as a HAT stage 1 control (early stage tyrypanocide to clear the parasites in the systemic circulation and in tissues other than CNS); Melasoprol (ip), 10 mg/kg once daily for 5 days as a positive control for HAT stage 2; […]. One group of five mice was an untreated control group. The dose solutions were prepared daily, using 5% DMSO:40% PEG400:55% Milli-Q water for compound (i.e., 40) and 10% DMSO:90% peanut oil for control drugs. To measure the response to treatment, parasitaemia was monitored twice per week until day 50. After day 50, the mice were checked only once per week until day 180 post treatment. Mice surviving to the end of experiment and blood smear aparasitaemic were considered cured.

The subject of data set [12] is T. b. brucei GVR35. The data set can be described thus: Acute mouse model of T. b. brucei GVR35. The format is in vivo.
Data set [13] in a line: in vitro. In kind it is cell-based, human. Conditions: human; read-out: MRC-5 EC50.
Data set [14] in a line: Mouse brain penetration. The format is in vivo. Conditions: female, NMRI, brain and blood, intravenous, 2 mg free base/kg, read-out: B:B (brain:blood ratio in mouse).

Values joined by “and” are separate entries in the source; they are usually repeats but may differ in a detail not shown here. Equal entries are not always repeated. Where two headings read alike, the source gives them in different places.

`Cc1nn(C)c(C)c1NS(=O)(=O)c1c(Cl)cc(-c2ccnc(N3CCNCC3)c2)cc1Cl` [compound 1, 2,6-Dichloro-4-(2-piperazin-1-yl-pyridin-4-yl)-N-(1,3,5-trimethyl-1H-pyrazol-4-yl)-benzenesulfonamide]: the AUC(0-t) in [1] was 6530 ng·h/mL. Also, the P-glycoprotein substrate entry in data set [2] is reported as “substrate for P-glycoprotein”. Moreover, the “Cli (mouse)” value in data set [3] (Table S1, unit not given) is on record as 0.6; in data set [3] (mouse liver microsomes), less than 1.0 mL min^–1 g^–1. The “stage 1 HAT minimal curative dose, T. b. rhodesiense STIB900” value in [4] was found to be 50 mg/kg. The “stage 1 HAT minimal curative dose, T. b. brucei S427” value in data set [5] is given as 12.5 mg/kg.

Molecule `Cc1c(NS(=O)(=O)c2c(Cl)cc(-c3ccnc(N4CCNCC4)c3)cc2Cl)c(CC(C)C)nn1C` [compound 6] yielded an MTD in [6] (po) of 20 mg/kg. Besides, the AUC(0-t) in data set [1] is 56700 ng·h/mL. Moreover, the “stage 1 HAT minimal curative dose, T. b. rhodesiense STIB900” value in data set [4] was determined as 6 mg/kg.

Consider `Cc1nn(C)c(C)c1N(C)S(=O)(=O)c1c(Cl)cc(CCCN2CCN(C)CC2)cc1Cl` [compound 33], for which the “hepatic extraction of the parent” value in [7] is recorded as “almost total hepatic extraction”. For the same molecule, the “Cli (mouse)” value in data set [3] (mouse liver microsomes) amounted to 7.4 mL min^–1 g^–1. The same molecule showed a Cli in data set [3] of 7.4 mL/min/g. Moreover, in data set [8], the “% Parent remaining (t = 15 min)” value is 6% and the “sulfonamide N-dealkylation on incubation with mouse microsomes” value was “N-dealkylated sulfonamide as the predominant metabolite”.

Turning to `Cc1nn(C)c(C)c1N(C(F)F)S(=O)(=O)c1c(Cl)cc(CCCC2CCN(C)CC2)cc1Cl` [compound 40, 2,6-Dichloro-N-(difluoromethyl)-4-(3-(1-methylpiperidin-4-yl)propyl)-N-(1,3,5-trimethyl-1H-pyrazol-4-yl)benzenesulfonamide], the MTD at 1 day in data set [6] (po) is 100 mg/kg. For the same molecule, in data set [9], the “~EC99” value is […]. In [1], this molecule came in with a Cmax of 661 ng/mL. In addition, in data set [1] (words), the “oral exposure in mouse” value is reported as “good oral exposure”. Also, in data set [10], the “oral dose needed to deliver stage 2 cures (Dose required)” value (“oral dose needed” for short) was 20 mg/kg. In data set [10] (mouse, in vivo), the fraction unbound is 0.019. Moreover, in data set [10] (oral dose 50mg/kg), the Conc in brain was 1031 ng/g and the Free brain conc is 19.6 ng/g. Further, in data set [5], the “Activity in stage 1 mouse model” value is “fully curative”. Also, the “toxicity in infected mice in stage 2 model” value (shortened to “toxicity in infected mice”) in data set [11] is 1/5. For the same molecule, the “efficacy in stage 2 model (mice cured)” value in [11] (the two 100 mg/kg extended dosing schedules (8 days; 3 x 3 days pulsed)) is given as 1/5. Further, the “efficacy in a stage 2 (CNS) mouse model of HAT” value in data set [11] (words) was “partial efficacy”. Besides, in data set [8], the “% Parent remaining (t = 15 min)” value is given as 67% and the “sulfonamide N-dealkylation on incubation with mouse microsomes” value is “did not undergo sulfonamide N-dealkylation”.

For `Cc1nn(C)c(C)c1N(CC(F)(F)F)[S+](=O)([O-])c1c(Cl)cc(CCCC2CCN(C)CC2)cc1Cl` [compound 42], the maximal tolerated dose (MTD) at 1 day in data set [6] was more than 200 mg/kg. For the same molecule, the “~EC99” value in data set [9] was ~56 nM and ~31 ng/mL. Further, the highest level in data set [1] (Cmax) was 876 ng/mL. In [3] (mouse liver microsomes), the “Cli (mouse)” value is reported as 1.1 mL min^–1 g^–1. In data set [3], this molecule showed a Cli of 1.1 mL/min/g. Also, the concentration at 8 h in data set [10] (NMRI, mouse, in vivo, oral dose 50mg/kg, read-out: Free brain conc at 8 hours post-dose) is 6.2 ng/g. Further, the “oral dose needed” value in [10] is 250 mg/kg. In addition, the fraction unbound in [10] (mouse, in vivo) is 0.032. Further, in data set [10] (oral dose 50mg/kg), the Conc in brain is 569 ng/g and the Free brain conc is given as 18.2 ng/g. Also, the “Activity in stage 1 mouse model” value in data set [5] is “fully curative”. Also, in data set [11] (T. b. brucei GVR35, 150 mg/kg b.i.d. po for 5 days), the “cures in stage 2 model” value was “none of the mice were cured”. For the same molecule, the “toxicity in infected mice” value in data set [11] is recorded as “well tolerated”.

`Cc1nn(C)c(C)c1N(C(F)F)S(=O)(=O)c1c(Cl)cc(CCCCC2CCN(C)CC2)cc1Cl` [compound 46] displayed an MTD at 1 day in data set [6] (po) of 50 mg/kg. Besides, the “~EC99” value in data set [9] is ~2 nM and ~1.1 ng/mL. The Cmax in data set [1] is 708 ng/mL. Also, the “minimum curative dose, acute model of T. b. brucei GVR35” value in [12] (b.i.d. po for 4 days) came out at 25 mg/kg. The “reduction in efficacy, T. b. brucei GVR35 compared to S427” value in data set [12] (in vivo) was approximately 4 fold. The “oral dose needed” value in [10] is 15 mg/kg. Further, the free fraction (fraction unbound) in data set [10] (mouse, in vivo) was 0.01. Moreover, in [10] (oral dose 50mg/kg), the Conc in brain is reported as 935 ng/g and the Free brain conc was 9.4 ng/g. For the same molecule, in [5], the “stage 1 HAT minimal curative dose, T. b. brucei S427” value is listed as 6 mg/kg. For the same molecule, the “toxicity in infected mice” value in data set [11] is given as 2/5. Also, the “toxicity in stage 2 model” value in data set [11] (extended 50 mg/kg dose regimen) is “significant toxicity”. Also, in data set [11] (extended regimens: 25 mg/kg b.i.d. for 10 days, 50 mg/kg b.i.d. po for 8 days), the “cures in stage 2 model” value is given as “no cures”.

For `Cc1nn(C)c(C)c1NS(=O)(=O)c1ccc(-c2ccnc(N3CCNCC3)c2)cc1` [compound 55], the EC50 in [9] (Trypanosoma brucei) amounted to 4 nM; in [13], 1400 nM. For the same molecule, the Kp in data set [14] was 0.1.

The term MTD denotes the highest dose tested that stayed within the study's limit of toxicity. What is called Cmax is the peak of the concentration-time curve. One may read the fraction unbound as free concentration divided by total concentration. The term EC50 denotes the concentration that produces a half-maximal response.

These data come from PMC4269550, “Lead Optimization of a Pyrazole Sulfonamide Series of Trypanosoma bruceiN-Myristoyltransferase Inhibitors: Identification and Evaluation of CNS Penetrant Compounds as Potential Treatments for Stage 2 Human African Trypanosomiasis” (Journal of Medicinal Chemistry, 2014).
